Key:
S. aureus DSM 20231 [1] = assay: Bliss interaction score (quartile over a dose matrix) (fitness difference); higher = more antagonism (negative = synergy)
How it was run: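 The Bliss score is observed minus expected fitness under the product model, reported as quartiles over technical, biological and donor/recipient replicates. Fitness is the OD595 at entry into stationary phase divided by the plate's robust no-drug mean and capped at 1. Single-drug fitness was inferred from combination data.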

S. aureus DSM 20231 [2] = assay: fitness (endpoint OD595 vs no drug) (fraction); higher = more growth
How it was run: (§1)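 Growth medium was TSB, LB Lennox or CY, and plates were kept at 37 °C. Inoculation was at OD595 0.01 in 384-well plates, at 30 µl per well or 55 µl for S. pneumoniae. OD595 was monitored every 30 min for 14 h and background-subtracted using the first reading. Fitness is the optical density on entering stationary phase divided by the robust mean of no-drug controls, with values capped at 1.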

S. aureus Newman = assay: as above
How it was run: as §1

B. subtilis 168 = assay: as above
How it was run: as §1

[3] = first compound 0.078 µg/mL, partner 0.375 µg/mL
[4] = first compound 0.078 µg/mL, partner 0.75 µg/mL
[5] = first compound 0.078 µg/mL, partner 1.5 µg/mL
[6] = first compound 0.156 µg/mL, partner 0.375 µg/mL
[7] = first compound 0.156 µg/mL, partner 0.75 µg/mL
[8] = first compound 0.156 µg/mL, partner 1.5 µg/mL
[9] = first compound 0.312 µg/mL, partner 0.375 µg/mL
[10] = first compound 0.312 µg/mL, partner 0.75 µg/mL
[11] = first compound 0.312 µg/mL, partner 1.5 µg/mL
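Throughout, for Bliss interaction score (quartile over a dose matrix): first quartile when negative (synergy) and third quartile when positive (antagonism).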

CN(C)[C@@H]1C(O)=C(C(N)=O)C(=O)[C@@]2(O)C(O)=C3C(=O)c4c(O)ccc(Cl)c4[C@@](C)(O)[C@H]3C[C@@H]12 [Clortetracycline] + O=C(O)c1cc(-c2ccc(F)cc2F)ccc1O [Diflunisal]
Bliss interaction score (S. aureus DSM 20231 [1]): 0.232

COCCOC(=O)C1=C(C)NC(C)=C(C(=O)OC/C=C/c2ccccc2)C1c1cccc([N+](=O)[O-])c1 (configuration not stated) [Cilnidipine] + Clc1ccc(COC(Cn2ccnc2)c2ccc(Cl)cc2Cl)c(Cl)c1 [Miconazole]
Bliss interaction score (S. aureus DSM 20231 [1]): 0.105

CN(C)[C@@H]1C(O)=C(C(N)=O)C(=O)[C@@]2(O)C(O)=C3C(=O)c4c(O)ccc(Cl)c4[C@@](C)(O)[C@H]3C[C@@H]12 [Clortetracycline] + CC[C@H](c1ccc(O)cc1)[C@@H](CC)c1ccc(O)cc1 [Hexestrol]
Bliss interaction score (S. aureus DSM 20231 [1]): -0.204

CC(=O)Oc1cccc2c1C(=O)c1c(OC(C)=O)cc(C(=O)O)cc1C2=O [Diacerein] + C[C@H]1COc2c(N3CCN(C)CC3)c(F)cc3c(=O)c(C(=O)O)cn1c23 [Levofloxacin]
Bliss interaction score (S. aureus DSM 20231 [1]): -0.237

CC(=O)Oc1ccccc1C(=O)O [Acetylsalicylicacid] + CCCCc1nc(Cl)c(CO)n1Cc1ccc(-c2ccccc2-c2nnn[nH]2)cc1 [Losartan]
Bliss interaction score (S. aureus DSM 20231 [1]): 0.178

CC(=O)Oc1cccc2c1C(=O)c1c(OC(C)=O)cc(C(=O)O)cc1C2=O [Diacerein] + COc1cc(Cc2cnc(N)nc2N)cc(OC)c1OC [Trimethoprim]
Bliss interaction score (S. aureus DSM 20231 [1]): -0.243

O=C(O)c1cn(C2CC2)c2cc(N3CCNCC3)c(F)cc2c1=O [Ciprofloxacin] + CCCSc1nc(N[C@@H]2C[C@H]2c2ccc(F)c(F)c2)c2nnn([C@@H]3C[C@H](OCCO)[C@@H](O)[C@H]3O)c2n1 [Ticagrelor]
Bliss interaction score (S. aureus DSM 20231 [1]): -0.375

COc1cccc2c1C(=O)c1c(O)c3c(c(O)c1C2=O)C[C@@](O)(C(=O)CO)C[C@@H]3O[C@H]1C[C@H](N)[C@H](O)[C@H](C)O1 [Doxorubicin] + CCCSc1nc(N[C@@H]2C[C@H]2c2ccc(F)c(F)c2)c2nnn([C@@H]3C[C@H](OCCO)[C@@H](O)[C@H]3O)c2n1 [Ticagrelor]
Bliss interaction score (S. aureus DSM 20231 [1]): -0.298

O=C(O)c1cn(C2CC2)c2cc(N3CCNCC3)c(F)cc2c1=O [Ciprofloxacin] + Cc1c(Cl)cccc1Nc1ccccc1C(=O)O [Tolfenamic]
Bliss interaction score (S. aureus DSM 20231 [1]): -0.188

COCCOC(=O)C1=C(C)NC(C)=C(C(=O)OC/C=C/c2ccccc2)C1c1cccc([N+](=O)[O-])c1 (configuration not stated) [Cilnidipine] + CC(=O)NC[C@H]1CN(c2ccc(N3CCOCC3)c(F)c2)C(=O)O1 [Linezolid]
Bliss interaction score (S. aureus DSM 20231 [1]): -0.254

CN(C)[C@@H]1C(O)=C(C(N)=O)C(=O)[C@@]2(O)C(O)=C3C(=O)c4c(O)ccc(Cl)c4[C@@](C)(O)[C@H]3C[C@@H]12 [Clortetracycline] + C[C@]12CC[C@@H]3c4ccc(O)cc4CC[C@H]3[C@@H]1CC[C@@H]2O [Estradiol]
Bliss interaction score (S. aureus DSM 20231 [1]): 0.237

COCCOC(=O)C1=C(C)NC(C)=C(C(=O)OC/C=C/c2ccccc2)C1c1cccc([N+](=O)[O-])c1 (configuration not stated) [Cilnidipine] + CN(C)C(=O)C(CCN1CCC(O)(c2ccc(Cl)cc2)CC1)(c1ccccc1)c1ccccc1 [Loperamide]
Bliss interaction score (S. aureus DSM 20231 [1]): -0.32

CN(C)[C@@H]1C(O)=C(C(N)=O)C(=O)[C@@]2(O)C(O)=C3C(=O)c4c(O)ccc(Cl)c4[C@@](C)(O)[C@H]3C[C@@H]12 [Clortetracycline] + CC(=O)Oc1cccc2c1C(=O)c1c(OC(C)=O)cc(C(=O)O)cc1C2=O [Diacerein]
Bliss interaction score (S. aureus DSM 20231 [1]): -0.344

CC(=O)Oc1ccccc1C(=O)O [Acetylsalicylicacid] + CN(Cc1cnc2nc(N)nc(N)c2n1)c1ccc(C(=O)N[C@@H](CCC(=O)O)C(=O)O)cc1 [Methotrexate]
Bliss interaction score (S. aureus DSM 20231 [1]): -0.416

Cc1cc(C(C)(C)C)c(O)c(C)c1CC1=NCCN1 [Oxymetazoline] + COc1cc(Cc2cnc(N)nc2N)cc(OC)c1OC [Trimethoprim]
Bliss interaction score (S. aureus DSM 20231 [1]): 0.209

COCCOC(=O)C1=C(C)NC(C)=C(C(=O)OC/C=C/c2ccccc2)C1c1cccc([N+](=O)[O-])c1 (configuration not stated) [Cilnidipine] + CCC(C)C1C(=O)NC(=C)C(=O)NC(C(=O)NC(CSCC(C(=O)N1)NC(=O)/C(=C/C)/NC(=O)C(C(C)CC)N)C(=O)NC2C(SCC(NC(=O)CNC(=O)C3CCCN3C2=O)C(=O)NC(CCCCN)C(=O)NC4C(SCC(NC(=O)CNC(=O)C(NC(=O)C(NC(=O)C(NC(=O)CNC4=O)C)CC(C)C)CCSC)C(=O)NC(CC(=O)N)C(=O)NC(CCSC)C(=O)NC(CCCCN)C(=O)NC5C(SCC6C(=O)NC(C(=O)NC(CSC(C(C(=O)N6)NC(=O)C(NC5=O)C)C)C(=O)NC(CO)C(=O)NC(C(C)CC)C(=O)NC(CC7=CN=CN7)C(=O)NC(C(C)C)C(=O)NC(=C)C(=O)NC(CCCCN)C(=O)O)CC8=CN=CN8)C)C)C)CC(C)C [Nisin]
Bliss interaction score (S. aureus DSM 20231 [1]; main component drawn): 0.156

COCCOC(=O)C1=C(C)NC(C)=C(C(=O)OC/C=C/c2ccccc2)C1c1cccc([N+](=O)[O-])c1 (configuration not stated) [Cilnidipine] + CO[C@@]12[C@H](COC(N)=O)C3=C(C(=O)C(C)=C(N)C3=O)N1C[C@@H]1N[C@@H]12 [MitomycinC]
Bliss interaction score (S. aureus DSM 20231 [1]): -0.236

CN(C)[C@@H]1C(O)=C(C(N)=O)C(=O)[C@@]2(O)C(O)=C3C(=O)c4c(O)ccc(Cl)c4[C@@](C)(O)[C@H]3C[C@@H]12 [Clortetracycline] + Cc1c(C)c2c(c(C)c1O)CCC(C)(COc1ccc(CC3SC(=O)NC3=O)cc1)O2 [Troglitazone]
Bliss interaction score (S. aureus DSM 20231 [1]): -0.137

Cn1c(=O)c2c(ncn2C)n(C)c1=O [Caffeine] + CC[C@H]1OC(=O)[C@H](C)[C@@H](O[C@H]2C[C@@](C)(OC)[C@@H](O)[C@H](C)O2)[C@H](C)[C@@H](O[C@@H]2O[C@H](C)C[C@H](N(C)C)[C@H]2O)[C@](C)(OC)C[C@@H](C)C(=O)[C@H](C)[C@@H](O)[C@]1(C)O [Clarithromycin]
Bliss interaction score (S. aureus DSM 20231 [1]): -0.357

O=C(O)c1cn(C2CC2)c2cc(N3CCNCC3)c(F)cc2c1=O [Ciprofloxacin] + COc1cc2ncnc(Nc3ccc(F)c(Cl)c3)c2cc1OCCCN1CCOCC1 [Gefitinib]
Bliss interaction score (S. aureus DSM 20231 [1]): -0.336

CN(C)[C@@H]1C(O)=C(C(N)=O)C(=O)[C@@]2(O)C(O)=C3C(=O)c4c(O)ccc(Cl)c4[C@@](C)(O)[C@H]3C[C@@H]12 [Clortetracycline] + CCCc1nc2c(C)cc(-c3nc4ccccc4n3C)cc2n1Cc1ccc(-c2ccccc2C(=O)O)cc1 [Telmisartan]
Bliss interaction score (S. aureus DSM 20231 [1]): -0.261

CO/N=C(\C(=O)N[C@@H]1C(=O)N2C(C(=O)O)=C(COC(C)=O)CS[C@H]12)c1csc(N)n1 [Cefotaxime] + N[C@@H]1CONC1=O [Cycloserine D]
fitness (S. aureus DSM 20231 [2]; first compound 0.039 µg/mL, partner 0.375 µg/mL): 0.822
fitness (S. aureus DSM 20231 [2]; first compound 0.039 µg/mL, partner 0.75 µg/mL): 0.822
fitness (S. aureus DSM 20231 [2]; first compound 0.039 µg/mL, partner 1.5 µg/mL): 0.835
fitness (S. aureus DSM 20231 [2]; [3]): 0.789
fitness (S. aureus DSM 20231 [2]; [4]): 0.853
fitness (S. aureus DSM 20231 [2]; [5]): 0.748
fitness (S. aureus DSM 20231 [2]; [6]): 0.736
fitness (S. aureus DSM 20231 [2]; [7]): 0.772
fitness (S. aureus DSM 20231 [2]; [8]): 0.696
fitness (S. aureus DSM 20231 [2]; [9]): 0.652
fitness (S. aureus DSM 20231 [2]; [10]): 0.638
fitness (S. aureus DSM 20231 [2]; [11]): 0.584
fitness (S. aureus Newman; [3]): 0.736
fitness (S. aureus Newman; [4]): 0.828
fitness (S. aureus Newman; [5]): 0.785
fitness (S. aureus Newman; [6]): 0.601
fitness (S. aureus Newman; [7]): 0.604
fitness (S. aureus Newman; [8]): 0.629
fitness (S. aureus Newman; [9]): 0.345
fitness (S. aureus Newman; [10]): 0.326
fitness (S. aureus Newman; [11]): 0.305
fitness (S. aureus Newman; first compound 0.625 µg/mL, partner 0.375 µg/mL): 0.186
fitness (S. aureus Newman; first compound 0.625 µg/mL, partner 0.75 µg/mL): 0.121
fitness (S. aureus Newman; first compound 0.625 µg/mL, partner 1.5 µg/mL): 0.0813
fitness (S. aureus Newman; first compound 1.25 µg/mL, partner 0.375 µg/mL): 0.0332
fitness (S. aureus Newman; first compound 1.25 µg/mL, partner 0.75 µg/mL): 0.0383
fitness (S. aureus Newman; first compound 1.25 µg/mL, partner 1.5 µg/mL): 0.0209
fitness (S. aureus Newman; first compound 2.5 µg/mL, partner 0.375 µg/mL): 0.0595
fitness (S. aureus Newman; first compound 2.5 µg/mL, partner 0.75 µg/mL): 0.0506
fitness (S. aureus Newman; first compound 2.5 µg/mL, partner 1.5 µg/mL): 0.0484
fitness (B. subtilis 168; first compound 0.00775 µg/mL, partner 0.125 µg/mL, one replicate): 0.876
fitness (B. subtilis 168; first compound 0.00775 µg/mL, partner 0.25 µg/mL, one replicate): 0.888
fitness (B. subtilis 168; first compound 0.00775 µg/mL, partner 0.5 µg/mL, one replicate): 0.802
fitness (B. subtilis 168; first compound 0.0155 µg/mL, partner 0.125 µg/mL, one replicate): 0.666
fitness (B. subtilis 168; first compound 0.0155 µg/mL, partner 0.25 µg/mL, one replicate): 0.756
fitness (B. subtilis 168; first compound 0.0155 µg/mL, partner 0.5 µg/mL, one replicate): 0.733
fitness (B. subtilis 168; first compound 0.031 µg/mL, partner 0.125 µg/mL, one replicate): 0.554
fitness (B. subtilis 168; first compound 0.031 µg/mL, partner 0.25 µg/mL, one replicate): 0.561
fitness (B. subtilis 168; first compound 0.031 µg/mL, partner 0.5 µg/mL, one replicate): 0.566
fitness (B. subtilis 168; first compound 0.0625 µg/mL, partner 0.125 µg/mL, one replicate): 0.498
fitness (B. subtilis 168; first compound 0.0625 µg/mL, partner 0.25 µg/mL, one replicate): 0.524
fitness (B. subtilis 168; first compound 0.0625 µg/mL, partner 0.5 µg/mL, one replicate): 0.477
fitness (B. subtilis 168; first compound 0.125 µg/mL, partner 0.125 µg/mL, one replicate): 0.353
fitness (B. subtilis 168; first compound 0.125 µg/mL, partner 0.25 µg/mL, one replicate): 0.401
fitness (B. subtilis 168; first compound 0.125 µg/mL, partner 0.5 µg/mL, one replicate): 0.363
fitness (B. subtilis 168; first compound 0.25 µg/mL, partner 0.125 µg/mL, one replicate): 0.296
fitness (B. subtilis 168; first compound 0.25 µg/mL, partner 0.25 µg/mL, one replicate): 0.31
fitness (B. subtilis 168; first compound 0.25 µg/mL, partner 0.5 µg/mL, one replicate): 0.267
fitness (B. subtilis 168; first compound 0.5 µg/mL, partner 0.125 µg/mL): 0.333
fitness (B. subtilis 168; first compound 0.5 µg/mL, partner 0.25 µg/mL): 0.28
fitness (B. subtilis 168; first compound 1 µg/mL, partner 0.125 µg/mL): 0.162
fitness (B. subtilis 168; first compound 1 µg/mL, partner 0.25 µg/mL): 0.169
fitness (B. subtilis 168; first compound 1 µg/mL, partner 0.5 µg/mL): 0.162
fitness (B. subtilis 168; first compound 2 µg/mL, partner 0.125 µg/mL): 0.16
fitness (B. subtilis 168; first compound 2 µg/mL, partner 0.25 µg/mL): 0.182
fitness (B. subtilis 168; first compound 2 µg/mL, partner 0.5 µg/mL): 0.15

Source: the supplement of paper PMC10627819
